Results taken from patent US20260042773A1, “NOVEL CAMPTOTHECIN ANALOGS AND IMMUNOCONJUGATES THEREOF” (priority 2022, published 2026).

Experiments:
[1] = tested on: SU-DHL-1 cells; assay: Cell viability (Cell Titer Glo 2.0) in SU-DHL-1 cells; format: cell-based; details: Homo sapiens, 120 hours at 37° C., Cell Titer Glo 2.0, normalized to non-treated controls
Protocol: (§1) SU-DHL-1 and SK-BR-3 cells (ATCC, Manassas, VA, USA) were seeded into 384-well white-walled culture plates and allowed to adhere for 2-4 hours. Cells were then treated at least in duplicate by addition of 5-fold serially diluted test articles prepared at 2× final concentration and incubated at 37° C. for 120 hours. Cell viability following treatment was determined by Cell Titer Glo 2.0 Assay (Promega, Madison, WI, USA) and normalized to non-treated controls. Dose-response relationships were analyzed using GraphPad Prism (La Jolla, C A, USA), and IC50 values were derived from non-linear regression analyses using a 4-parameter logistic equation.

[2] = tested on: SK-BR-3 cells; assay: Cell viability (Cell Titer Glo 2.0) in SK-BR-3 cells; format: cell-based; details: Homo sapiens, 120 hours at 37° C., Cell Titer Glo 2.0, normalized to non-treated controls
Protocol: as §1

Compound | IC50 [1] [nM] | IC50 [2] [nM]
CC[C@@]1(O)C(=O)OCc2c1cc1n(c2=O)Cc2c-1nc1ccc(N)cc1c2CN1CCOCC1 [Compound 1] | < 5 | 5 to 20
CC[C@@]1(O)C(=O)OCc2c1cc1n(c2=O)Cc2c-1nc1ccc(N)cc1c2CN1CCN(C)CC1 [Compound 2] | 5 to 20 | > 20
CC[C@@]1(O)C(=O)OCc2c1cc1n(c2=O)Cc2c-1nc1ccc(N)cc1c2CN1CCS(=O)(=O)CC1 [Compound 3] | > 20 | > 20
CC[C@@]1(O)C(=O)OCc2c1cc1n(c2=O)Cc2c-1nc1ccc(N)cc1c2COC [Compound 4] | < 5 | < 5
CC[C@@]1(O)C(=O)OCc2c1cc1n(c2=O)Cc2c-1nc1ccc(N)cc1c2N1CCOCC1 [Compound 5] | < 5 | < 5
CC[C@@]1(O)C(=O)OCc2c1cc1n(c2=O)Cc2c-1nc1ccc(N)cc1c2N1CCCC1 [Compound 6] | 5 to 20 | 5 to 20
CC[C@@]1(O)C(=O)OCc2c1cc1n(c2=O)Cc2c-1nc1ccc(N)cc1c2N1CC2(COC2)C1 [Compound 7] | 5 to 20 | 5 to 20
CC[C@@]1(O)C(=O)OCc2c1cc1n(c2=O)Cc2c-1nc1ccc(N)cc1c2N1CCC1 [Compound 8] | 5 to 20 | 5 to 20
CC[C@@]1(O)C(=O)OCc2c1cc1n(c2=O)Cc2c-1nc1ccc(N)cc1c2N1CC2(CCOCC2)C1 [Compound 9] | < 5 | 5 to 20
CC[C@@]1(O)C(=O)OCc2c1cc1n(c2=O)Cc2c-1nc1ccc(N)cc1c2CO [Compound 10] | 5 to 20 | 5 to 20
CC[C@@]1(O)C(=O)OCc2c1cc1n(c2=O)Cc2c-1nc1ccc(N)cc1c2N1CC2(CCOC2)C1 [Compound 11] | < 5 | < 5
CC[C@@]1(O)C(=O)OCc2c1cc1n(c2=O)Cc2c-1nc1ccc(N)cc1c2N1CCCCC1 [Compound 12] | < 5 | < 5
CC[C@@]1(O)C(=O)OCc2c1cc1n(c2=O)Cc2c-1nc1ccc(N)cc1c2N(C)C [Compound 14] | 5 to 20 | 5 to 20
CC[C@@]1(O)C(=O)OCc2c1cc1n(c2=O)Cc2c-1nc1ccc(N)cc1c2N1CCN(S(C)(=O)=O)CC1 [Compound 15] | 5 to 20 | > 20
CC[C@@]1(O)C(=O)OCc2c1cc1n(c2=O)Cc2c-1nc1ccc(N)cc1c2N(C)CCOC [Compound 16] | < 5 | 5 to 20
CC[C@@]1(O)C(=O)OCc2c1cc1n(c2=O)Cc2c-1nc1ccc(N)cc1c2N(C)CCN(C)C [Compound 17] | > 20 | > 20
CC[C@@]1(O)C(=O)OCc2c1cc1n(c2=O)Cc2c-1nc1ccc(N)cc1c2N1C[C@H]2CC[C@@H](C1)O2 [Compound 18] | < 5 | < 5
CC[C@@]1(O)C(=O)OCc2c1cc1n(c2=O)Cc2c-1nc1ccc(N)cc1c2NC [Compound 19] | > 20 | 5 to 20
CC[C@@]1(O)C(=O)OCc2c1cc1n(c2=O)Cc2c-1nc1ccc(N)cc1c2N(C)CCO [Compound 20] | > 20 | > 20
CC[C@@]1(O)C(=O)OCc2c1cc1n(c2=O)Cc2c-1nc1ccc(N)cc1c2N [Compound 21] | > 20 | 5 to 20
CC[C@@]1(O)C(=O)OCc2c1cc1n(c2=O)Cc2c-1nc1ccc(N)cc1c2N1CCSCC1 [Compound 23] | < 5 | < 5
